# Results published in patent publication US20210055311A1, “SCREENING METHOD FOR ESTROGENIC AND ANTI-ESTROGENIC ACTIVITY” (BUNDESINSTITUT FÜR RISIKOBEWERTUNG, priority 2018, published 2021).
# “Also recorded” adds a separate entry of the source.
# System: MCF7/vBOS cells (DSM ACC3321)
# Experiment: Formation of discontinuous basolateral adherens junctions upon anti-estrogen exposure (E-Cadherin immunofluorescence)
# Assay type: cell-based, human
# Conditions: for formation of discontinuous adherens junctions (E-Cadherin staining): concentration and incubation time per compound as in FIGS. 1-3
# Text: The time usually required for formation of discontinuous basolateral adherens junctions will depend on the estrogen receptor binding affinity and concentration of the anti-estrogen used on the one hand and the cell used on the other hand, but a person skilled in the art will be readily capable of determining the appropriate time spans and concentration for a given anti-estrogen and cell. For example, if the cell is a cell as deposited under accession number DSM ACC3321, suitable concentration ranges and culture times for manifestation of the discontinuous basolateral adherens junctions phenotype in presence of fulvestrant, tamoxifen, ZK 164015, MPP dihydrochloride, and (Z)-4-hydroxytamoxifen, without being limited thereto, are:
# MCF7/vBOS cells were grown on glass coverslips in multi-well tissue culture plates (TPP) for 24 h and then treated for at least 48 h with 0.1% EtOH (solvent control) and different concentrations (10^−11 M, 10^−10 M, 10^−9 M, 10^−8 M, 10^−7 M) of the ERα antagonist fulvestrant (Sigma-Aldrich, CAS-No. 129453-61-8). During experiments, medium was exchanged on a daily basis. All experiments were performed at 37° C. with 5% CO2 in reduced-serum medium (phenol red-free DMEM (Gibco), 5% FBS (Biochrom, S 0615, LOT1353 W), 1% glutamine, 100 μg/ml streptomycin/100 U/ml penicillin (Biochrom)).
# After treatment with fulvestrant the adherens junction morphology of the cells was analysed by means of immunofluorescence microscopy. Briefly, cells were fixed with 3.7% formaldehyde in PBS for 15 min, permeabilized with 0.2% Triton X-100 in PBS for 30 min, and blocked with 5% FBS in PBS for 60 min (all steps at room temperature). Incubation with primary and secondary antibodies in PBS containing 1.5% BSA was carried out over night at 4° C. and for 1 h at room temperature, respectively. The following antibodies/dyes were used: anti-E-Cadherin (H-108, Santa Cruz); DAPI (Roche); secondary antibody conjugated to Cy3 (alternatives are, e.g.: Cy2, Alexa Fluor 488/555/647; all Invitrogen). The samples were then mounted in Dako fluorescence mounting medium (Dako) or VectaShield (Vector Labs). All images were acquired with an Axio Observer.Z1 widefield microscope equipped with an Apotome.2 device for optical sectioning using structured illumination (Zeiss). After 48 hours the fraction of cells displaying discontinuous adherens junctions was determined by CellProfiler/CellProfer-analyst software (see example 7).
# In view of the results obtained with MCF7/vBOS cells upon exposure to fulvestrant the inventors speculated that a similar phenotype might be obtainable with other ERα antagonist as well. To test this hypothesis, the inventors used the ERα antagonists tamoxifen (Sigma-Aldrich, CAS-No. 10540-29-1), MPP dihydrochloride (Sigma-Aldrich, CAS-No. 911295-24-4), ZK164015 (Tocris, CAS-No. 177583-70-9), and (Z)-4-hydroxytamoxifen (Tocris, CAS-No. 68047-06-3). The same protocols as in example 2 were used with the following deviations: • Tamoxifen: Cells were grown for 24 h and then treated for 144 h with 10^−8 and 10^−6 M tamoxifen. • MPP dihydrochloride: Cells were grown for 24 h and then treated for 144 h with 10^−8 and 10^−6 M MPP dihydrochloride. • ZK164015: Cells were grown for 24 h and then treated for 48 h with 10^−9 and 10^−7 M ZK164015. • (Z)-4-hydroxytamoxifen: Cells were grown for 24 h and then treated for 72 h with 10^−9 and 10^−8 M (Z)-4-hydroxytamoxifen.
# Subsequently, quantitative image analysis was performed using a pipeline that builds on the CellProfiler software (Carpenter et al., Genome Biol., 2006; 7(10):R100.) for segmentation and extraction of cellular parameters, and on the CellProfiler Analyst software (Jones et al., BMC Bioinformatics, 2008 Nov. 15; 9:482) for parameter-based classification of cells. In the segmentation process, primary objects (nuclei) were identified from DAPI staining by global thresholding using Otsu's method. […]
# [1] = cell as deposited under DSM ACC3321
compound,measurement,setting,value
C[C@]12CC[C@@H]3c4ccc(O)cc4C[C@@H](CCCCCCCCC[S+]([O-])CCCC(F)(F)C(F)(F)F)[C@H]3[C@@H]1CC[C@@H]2O (stereo partly shown) [Fulvestrant],"activity in this assay relative to tamoxifen, ZK164015, MPP or (Z)-4-hydroxytamoxifen",,more active
same,time after treatment within which discontinuous adherence junctions form,,two
same,time within which discontinuous basolateral adherens junctions have stably formed,,28 to 48 h
same,stability of discontinuous basolateral adherens junctions without adding additional anti-estrogens,after stable formation,≥ 72 h
same,Concentration (M) suitable for manifestation of the discontinuous basolateral adherens junctions phenotype,[1],10^−9-10^−7 M
same,Culture time (h) typically required for formation of discontinuous basolateral adherens junctions,[1],24 to 96 h
same,formation of discontinuous adherens junctions (E-Cadherin staining),,triggers the formation of discontinuous adherence junctions
same,formation of discontinuous adherens junctions (E-Cadherin staining),listed as fulvestrant,formation of discontinuous adherens junctions; also recorded: morphology changes
same,fraction of cells with continuous / discontinuous adherens junctions (CellProfiler quantification),"different concentrations, 48 hours",fraction of cells with continuous adherens junctions decreased while the fraction of cells with discontinuous adherens junctions increased
same,minimal concentration for appearance of discontinuous adherens junctions,"treatment for 48 hours, 10^−11 to 10^−7 M tested",10^−9 M
